One experiment concerns p53. Kind of experiment: Western blot of lung homogenates of bleo-treated mice: p53. Format: in vivo, mouse. As to conditions: 40 μg bleomycin intranasally, 10 mM peptide i.p. by 0.1 ml osmotic pump after 24 h, day 7. The protocol:
(§1) Mice were treated intranasally with 50 μl saline (SAL; control) or an equal volume of a 40 μg bleomycin solution (Bleo). After 24 h, 10 mM PP-1 (“Bleo+PP-1”) or control peptide (Bleo+CP-1) were given intraperitoneally using a 0.1 ml osmotic pump. Lungs were excised on day 7, bronchoalveolar lavage (BAL) fluid (“B”), lung homogenates (“H”) and membrane proteins (uPAR) were analyzed by Western blotting using antibodies specific for the murine proteins. (The same blot (“H”) was then stripped and analyzed for β-actin confirm equivalent loading of the lanes)
(§2) Mice were treated intranasally with 50 μl saline or an equal volume of a 40 μg bleomycin solution. After 24 h, 10 mM PP-1 or the same concentration of control peptide CP-1 were given intraperitoneally using a 0.1 ml osmotic pump. Lungs were excised on day 7.
Lung tissue was chopped into small pieces with fine scissors and rinsed 3× with PBS. The tissues were then homogenized in 1 ml of extraction buffer (25 mM Tris-HCl, pH 7.9. 0.5 mM EDTA and 0.1 mM PMSF) and the homogenate was centrifuged at 12,000 g for 15 min at 4° C. […] Protein content was measured using a BioRad protein assay kit. […] Protein was detected by enhanced chemiluminescence (ECL). […]
Mice were treated intranasally with saline (controls) are indicated (SAL). […] (The same blot (H) was later stripped and analyzed for β-actin confirm equivalent loading of the lanes)
For orientation: In western blotting, separated proteins are transferred to a membrane and probed.

A further experiment relates to PAI-1. The experiment in a line: Western blot of BAL fluid and lung homogenates of bleo-treated mice: PAI-1. Format: in vivo, mouse. As to conditions: 40 μg bleomycin intranasally, day 7; for PAI-1 expression in lung homogenates: 10 mM peptide i.p. by 0.1 ml osmotic pump after 24 h. The protocol:
as §1, §2
Lung tissue was chopped into small pieces with fine scissors and rinsed 3× with PBS. The tissues were then homogenized in 1 ml of extraction buffer (25 mM Tris-HCl, pH 7.9. 0.5 mM EDTA and 0.1 mM PMSF) and the homogenate was centrifuged at 12,000 g for 15 min at 4° C. The supernatant was removed and referred to as the crude extract. Protein content was measured using a BioRad protein assay kit. Cytosolic proteins were separated by SDS-PAGE and transferred to a nitrocellulose membrane which was blocked with 1% BSA in a wash buffer for 1 h at room temperature followed by overnight incubation with antibodies specific for uPA, PAI-1 or p53 in the same buffer at 4° C. Protein was detected by enhanced chemiluminescence (ECL). Membranes were stripped and immunoblotted for β-actin.
Mice were treated intranasally with saline (controls) are indicated (SAL). Mice receiving an equal volume of a 40 μg bleomycin solution are indicated (Bleo). Mice given PP-1 are indicated (PP-1) and those given control peptide are indicated (CP-1). BAL fluid is indicated (B), and lung homogenates (H) and membrane proteins (uPAR). Blots were probed with antibodies specific for the relevant murine proteins. (The same blot (H) was later stripped and analyzed for β-actin confirm equivalent loading of the lanes)

Experiment [1] has as its system bleomycin-induced lung epithelial cell (LEC) apoptosis. The experiment in a line: TUNEL staining for apoptosis of lung sections of bleo-treated mice. As to conditions: for Lung epithelial cell apoptosis: appearance of cells / Lung epithelial cell apoptosis: cell death: bleo-treated animals, peptide one day after bleo; for Lung epithelial cell apoptosis: appearance of cells: lung tissue day 21; for Lung epithelial cell apoptosis: cell death: lung tissue day 21, TUNEL; for apoptosis (TUNEL positive cells): peptide 4.5 μM i.p. on day 1 and 2, bleomycin 40 μg/50 μl intranasal on day 2, 24, 48 and 72 h. It is filed as in vivo, mouse. As for the experimental part:
The mice were sacrificed 24, 48 and 72 h later. Lungs were excised, inflated and fixed in formalin, and […] sections were analyzed by TUNEL staining. […]

For experiment [2], the system named is bleo-induced lung injury in the mouse. Kind of experiment: Lung desmosine (elastin) after bleo-induced lung injury. It is filed as in vivo. As to conditions: 50 μg Bleo intranasally; 10 mM peptide in 0.1 ml osmotic pump i.p. one day later; lungs after 21 days. The protocol:
(§3) FIGS. 10A and 10B are graphs showing the effect of PP-1 on fibrosis following bleo-induced lung injury in the mouse. […] 24 h after bleo, 0.1 ml osmotic pump filled with 10 mM PP-1 (designated “Bleo+PP” in Figures) or CP1 control scrambled peptide (“Bleo+CP1”) were implanted intraperitoneally. Lungs were harvested after 21 days, homogenized and the homogenates were subjected to the analysis of hydroxyproline or desmosine levels.
(§4) Lungs were harvested after 21 days, homogenized and the homogenates were subjected to the analysis of hydroxyproline as above (FIG. 10A) or desmosine (FIG. 10B). The effect of PP-1 on fibrosis in bleo-induced mouse lung injury was evaluated. Mice were treated with saline or 50 μg Bleo intranasally were implanted one day later with, 0.1 ml osmotic pumps i.p. The pumps were filled with either 10 mM (2.92 mg/100 μl) PP-1 (“Bleo+PP-1”) or control scrambled peptide CP-1 (“Bleo+CP-1”).

The test system is the same in experiment [3]. The experiment in a line: Lung hydroxyproline (collagen deposition) after bleo-induced lung injury. It is filed as in vivo. As to conditions: for lung hydroxyproline levels: 50 μg Bleo intranasally, 10 mM peptide in 0.1 ml osmotic pump i.p. one day later, lungs after 21 days. The protocol:
as §3
Anesthetized mice received intranasal bleomycin HCl solution containing 40 μg/50μl in sterile saline solution. After 24 h, 7 days or 14 days 10 mM PP-1 (“Bleo+PP-1”) or control peptide (Bleo+CP-1) were given ip using a 0.1 ml osmotic pump. Mice were sacrificed and lungs excised 21 days later. Lung homogenates were analyzed for hydroxyproline. Results are expressed a % of control hydroxyproline concentration.
Anesthetized mice received intranasal bleomycin HCl solution containing 40 μg/50 μl in sterile saline solution. After day 7, 10 mM peptide PP-2 (“Bleo+PP-2”) or control peptide (“Bleo+CP-2) were given intraperitoneally using a 0.1 ml osmotic pump. Lungs were excised after 21 days, lungs were homogenized and the homogenates were analyzed for hydroxyproline. Results are expressed a % of control hydroxyproline concentration.
The hPro content of the whole mouse lungs tissues were measured using the technique of Woessner J F, 1961, Arch. Biochem. Biophys. 93:440-7). Lung tissue from each animal was homogenized in 1.0 ml of extraction buffer. One ml 12N HCl was added, and the samples were hydrolyzed at 110° C. for 24 h. After cooling, 5 μl of the samples were mixed with 5 μl of citrate-acetate buffer (5% citric acid, 1.2% glacial acetic acid, 7.25% sodium acetate and 3.4% sodium hydroxide) and 100 μl of chloramine-T solution (1.4% chloramine-T, 10% N-propanol, and 80% citrate acetate buffer) in 96 well plates. The mixture was incubated for 20 min at room temperature. A total of 100 μl of Ehrlich's solution (2.5 g p-dimethylaminobenzaldehyde added to 9.3 ml of n-propanol and 3.9 ml of 70% perchloric acid) was added to each well and the plates incubated at 65° C. for 18 min. The absorbance of each sample was measured at 550 nm. Standard curves were generated for each experiment using a known concentration of reagent hPro. Results were expressed as % changes in hPro content (with total hPro content of saline-treated control mouse lungs considered 100%).
as §4

With Bleomycin, the “p53 expression in lung homogenates” value with p53 is “increased”. Moreover, in the experiment with PAI-1, the “PAI-1 expression in lung homogenates” value is listed as “increased” and the “PAI-1 in BAL fluid” value was “increased”. For the same substance, in experiment [1], the “Lung epithelial cell apoptosis: appearance of cells” value is reported as “Fibrotic cells,”, the “Lung epithelial cell apoptosis: cell death” value stood at 80% cell death and the “apoptosis (TUNEL positive cells)” value is reported as “increased apoptosis (TUNEL positive cells) as early as 24 h after exposure”. Besides, in experiment [2], the lung desmosine levels result is “significant increase in lung hydroxyproline or desmosine levels”. Further, in experiment [3], the lung hydroxyproline levels result was “significant increase in lung hydroxyproline or desmosine levels”.

Take “DGIWKASFTTFTVTKYWFYR [PP-1, residues 82-101 of human Cav-1, the caveolin-1 scaffolding domain]”: the “p53 expression in lung homogenates” value in the experiment on p53 was “inhibited the increased p53 and PAI-1 expression”. Further, the “PAI-1 expression in lung homogenates” value in the experiment on PAI-1 is “inhibited the increased p53 and PAI-1 expression”. Also, the “bleo-induced mouse lung injury (TUNEL staining for apoptosis)” value in experiment [1] (bleo 50 μg/ml intranasal, peptide intranasally 3.35 μM (375 μg/50 μl) on day 2, 4 and 6, lungs after 21 days) was “prevented bleo-induced mouse lung injury in vivo”. Further, in experiment [1], the “Lung epithelial cell apoptosis: appearance of cells” value was “No fibrosis,”, the “Lung epithelial cell apoptosis: cell death” value is given as 12% cell and the “apoptosis (TUNEL positive cells)” value is “reversed bleomycin-induced apoptosis”. For the same substance, the “protection of LECs from bleo-induced lung injury” value in experiment [1] (conclusion from Table 3, day 21) was above 90%. Besides, the “bleo-induced LEC apoptosis (apoptotic scores)” value in experiment [1] (i.p. 0.1 ml osmotic minipump, 10 mM peptide, one day after intranasal bleo, lungs after 16 days) is “protect against bleo-induced LEC apoptosis”. The lung desmosine levels result in experiment [2] is listed as “significantly reduced, to normal levels”. The lung hydroxyproline levels entry in experiment [3] was “significantly reduced, to normal levels”. Also, the “bleomycin-induced collagen deposition (hydroxyproline, % of control)” value in experiment [3] (bleomycin 40 μg/50 μl intranasal, 10 mM peptide i.p. osmotic pump after 24 h, 7 days or 14 days, lungs 21 days) was “significantly inhibited bleomycin-induced collagen deposition and lung fibrosis”.

The values are drawn from patent US8697840B2, “Peptide inhibition of lung epithelial apoptosis and pulmonary fibrosis” (Board of Regents, The University of Texas System, priority 2008, dated 2014).
